Measurements taken from patent US20260053811A1, “METHODS OF TREATING HYPERTENSION IN OBESE SUBJECTS” (Mineralys Therapeutics, Inc., priority 2022, published 2026).

Test system: hypertensive subjects
Experiment: Seated automated office blood pressure (AOBP) in randomized, placebo-controlled, dose-ranging study
Type: in vivo, human
Design: Difference from placebo in change in blood pressure: unit not given here
Experimental: A randomized, double-blinded, placebo-controlled, dose-ranging, multicenter study was conducted to evaluate the effect of orally administered Compound A HBr on blood pressure for the treatment of hypertension in male and female subjects ≥18 years of age.
The study consists of two parts. For enrollment into Part 1 of the study, a subject's value of plasma renin activity (PRA) must be ≤1 ng/mL/h based on morning measurement. If the value of PRA >1 ng/mL/h based on morning measurement, then subjects may be eligible to enter Part 2 of the study.
For Part 1, 163 enrolled subjects ≥18 years of age were randomized into 6 equal treatment groups (1:1:1:1:1:1) to 12.5 mg BID, 25 mg BID, 12.5 mg QD, 50 mg QD, 100 mg QD, or placebo. After a review of interim clinical data, the 2 lowest dose levels (12.5 mg QD and 12.5 mg BID) were stopped for future randomization due to a lack of consistent meaningful reduction of blood pressure, but the patients randomized to that point remained in the study through completion. Thus, after the review of interim clinical data, subjects were randomized into 4 equal treatment groups (1:1:1:1) to 25 mg BID, 50 mg QD, 100 mg QD, or placebo.
For Part 2, 36 enrolled subjects ≥18 years of age were randomized (5:1) to either 100 mg QD Compound A HBr or placebo such that the Compound A HBr treatment group consisted of approximately 30 subjects and the placebo treatment group will consist of approximately 6 subjects.
Subjects orally administered the assigned study drug (Compound A HBr or placebo) according to the assigned dosing regimen for 8 weeks beginning on Study Day 1. All subjects in Part 1 (regardless of dosing group) received BID dosing to preserve the integrity of the blind; active drug is administered as the morning dose for all QD dose groups. Subjects returned to the research facility or were seen by the clinical investigator or approved home health care professional at the end of Study Weeks 1, 2, 3, 4, 5, 6, 7, and 8 (±2 days) for protocol-defined efficacy and safety assessments and procedures, assessment of adverse events (AEs), and confirmation of compliance with study drug usage. Subjects also completed a telephone visit and blood pressure (BP) check at home approximately 3 days post last dose of study drug. Subjects attended up to 14 full clinic visits, including a pre-Screening visit, a Screening/start of Placebo Run-in visit, a second visit during Placebo Run-in, a clinic visit to initiate the ABPM procedure, a Randomization visit, 8 weekly visits during double-blind treatment, and an end-of-study visit scheduled 4 weeks after the last study treatment for final efficacy and safety assessments.
An automated oscillometric sphygmomanometer device was used to measure the subjects' systolic and diastolic blood pressure in office after approximately 5 minutes of rest in the seated position.
The primary endpoint is the change in office-measured (mean of last 2 of 5 unattended measurements using an automated oscillometric sphygmomanometer device after approximately 5 minutes of rest in the seated position) systolic blood pressure (SBP) from baseline to the end of Study Week 8.
Secondary endpoints of this study were: • (a) Change in 24-hour ambulatory blood pressure monitoring (ABPM) parameters (systolic and diastolic) from baseline to the end of Study Week 7. • (b) Change in office-measured SBP from baseline to the end of Study Weeks 1, 2, 3, 4, 5, 6, and 7. • (c) Change in office-measured diastolic blood pressure (DBP) from baseline to the end of Study Weeks 1, 2, 3, 4, 5, 6, 7, and 8. • (d) Proportion of subjects who achieve office-measured BP of ≤130/80 mm Hg by the end of Study Week 8.

[1] = 12.5 mg BID, Week 1, Part 1, FAS
[2] = 12.5 mg BID, Week 2, Part 1, FAS
[3] = 12.5 mg BID, Week 3, Part 1, FAS
[4] = 12.5 mg BID, Week 4, Part 1, FAS
[5] = 12.5 mg BID, Week 5, Part 1, FAS
[6] = 12.5 mg BID, Week 6, Part 1, FAS
[7] = 12.5 mg BID, Week 7, Part 1, FAS
[8] = 12.5 mg BID, Week 8, Part 1, FAS

SMILES: CC(=O)N[C@H]1CC[C@H](NC(=O)CN2CCN(c3nncc(-c4ccc(C)cc4)n3)CC2)CC1 [Compound A HBr]
- Difference from placebo in change in blood pressure (12.5 mg BID, BMI 25-30): −3.5
- Difference from placebo in change in blood pressure (12.5 mg BID, BMI >30): −10.1
- Difference from placebo in change in blood pressure (12.5 mg BID, Thiazide No): −1.4
- Difference from placebo in change in blood pressure (12.5 mg BID, Thiazide Yes): −10.6
- Seated AOBP DBP change from baseline (CFB), Mean (SD) [1]: −5.95 (6.17) mmHg
- Seated AOBP DBP, Mean (SD) [1]: 75.59 (8.32) mmHg
- Seated AOBP SBP change from baseline (CFB), Mean (SD) [1]: −8.89 (11.51) mmHg
- Seated AOBP SBP, Mean (SD) [1]: 135.68 (14.48) mmHg
- Seated AOBP DBP change from baseline (CFB), Mean (SD) [2]: −7.32 (9.14) mmHg
- Seated AOBP DBP, Mean (SD) [2]: 74.23 (10.15) mmHg
- Seated AOBP SBP change from baseline (CFB), Mean (SD) [2]: −11.98 (13.02) mmHg
- Seated AOBP SBP, Mean (SD) [2]: 132.59 (14.70) mmHg
- Seated AOBP DBP change from baseline (CFB), Mean (SD) [3]: −0.93 (7.51) mmHg
- Seated AOBP DBP, Mean (SD) [3]: 79.95 (9.17) mmHg
- Seated AOBP SBP change from baseline (CFB), Mean (SD) [3]: −5.80 (9.60) mmHg
- Seated AOBP SBP, Mean (SD) [3]: 137.70 (15.37) mmHg
- LSM Δ with Placebo, seated AOBP DBP (MMRM) [4]: −4.48 mmHg
- Modelled (MMRM) LSM (SEM) change from baseline, seated AOBP DBP [4]: −5.02 (1.67) mmHg
- Seated AOBP DBP change from baseline (CFB), Mean (SD) [4]: −4.18 (10.21) mmHg
- Seated AOBP DBP, Mean (SD) [4]: 75.79 (10.69) mmHg
- Seated AOBP SBP change from baseline (CFB), Mean (SD) [4]: −10.71 (12.27) mmHg
- Seated AOBP SBP, Mean (SD) [4]: 132.95 (15.79) mmHg
- Seated AOBP DBP change from baseline (CFB), Mean (SD) [5]: −7.00 (7.81) mmHg
- Seated AOBP DBP, Mean (SD) [5]: 73.50 (10.13) mmHg
- Seated AOBP SBP change from baseline (CFB), Mean (SD) [5]: −12.53 (13.34) mmHg
- Seated AOBP SBP, Mean (SD) [5]: 131.44 (13.13) mmHg
- Seated AOBP DBP change from baseline (CFB), Mean (SD) [6]: −6.47 (6.39) mmHg
- Seated AOBP DBP, Mean (SD) [6]: 74.95 (10.29) mmHg
- Seated AOBP SBP change from baseline (CFB), Mean (SD) [6]: −14.00 (14.80) mmHg
- Seated AOBP SBP, Mean (SD) [6]: 129.79 (15.24) mmHg
- Seated AOBP DBP change from baseline (CFB), Mean (SD) [7]: −5.76 (7.62) mmHg
- Seated AOBP DBP, Mean (SD) [7]: 74.21 (9.64) mmHg
- Seated AOBP SBP change from baseline (CFB), Mean (SD) [7]: −11.76 (13.06) mmHg
- Seated AOBP SBP, Mean (SD) [7]: 131.89 (11.93) mmHg
- LSM Δ from Placebo, change from baseline in seated AOBP SBP (MMRM) [8]: −7.2 mmHg
- LSM Δ with Placebo, seated AOBP DBP (MMRM) [8]: −3.84 mmHg
- Modelled (MMRM) LSM (SEM) change from baseline, seated AOBP DBP [8]: −5.47 (2.02) mmHg
- Modelled (MMRM) LSM (SEM) change from baseline, seated AOBP SBP [8]: −11.30 (3.15) mmHg
- Seated AOBP DBP change from baseline (CFB), Mean (SD) [8]: −5.84 (8.78) mmHg
- Seated AOBP DBP, Mean (SD) [8]: 75.21 (10.07) mmHg
- Seated AOBP SBP change from baseline (CFB), Mean (SD) [8]: −13.79 (17.70) mmHg
- Seated AOBP SBP, Mean (SD) [8]: 131.89 (12.93) mmHg
- Subjects with seated AOBP SBP/DBP ≤130/80 mmHg: No [8]: 15 (68.2) n (%)
- Subjects with seated AOBP SBP/DBP ≤130/80 mmHg: Yes [8]: 7 (31.8) n (%)
- Difference from placebo in change in blood pressure (12.5 mg QD, BMI 25-30): −.14
